In PubChem BioAssay (NCI) one finds GI50 and TGI data, which are given here for 14 compounds.

Holding throughout (assay): DTP human tumour cell line panel, 48 h
In test [1] the test system is HS 578T breast.
The subject of test [2] is A549 NSCLC.
The subject of test [3] is SN12C renal.
For test [4], the system named is PC-3 prostate.
The subject of test [5] is UACC-257 melanoma.
Test [6] has as its system UACC-62 melanoma.
Test [7] relates to CCRF-CEM leukemia.
Test [8] deals with MOLT-4 leukemia.
Test [9] concerns T-47D breast.
Test [10] relates to HOP-92 NSCLC.

Each structure is given as a SMILES string.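 Interpolation was linear, between the two tested concentrations surrounding the appropriate level; five concentrations were tested over 48 hours in 96-well plates. GI50 marks 50% less growth. TGI denotes the concentration required for complete inhibition of growth.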

For orientation: GI50 means the concentration at which growth is held to half of that of the control. By TGI is commonly meant the concentration at which net growth stops. The low end stands for more potent growth arrest, the high end for less potent growth arrest.

Take `CC(=O)N[C@@H](Cc1ccc(OP(=O)(O)O)cc1)C(=O)N[C@H]1CCC(=O)N2CCC[C@@H](C(=O)NCc3cccc4ccccc34)N2C1=O`: the GI50 in test [1], in test [2], in test [3], in test [4], in test [5] and in test [6] was over 25 µM throughout. For the same compound, the GI50 in [7], in test [8] and in test [9] was over 25 µM each time. Moreover, the TGI in test [1], in [2], in test [3], in test [4], in test [5] and in test [6] was over 25 µM each time. Further, the TGI in test [7], in test [8] and in test [9] was over 25 µM each time.
Turning to `COc1ccc(C(=O)O[C@@H]2CCN3CC[C@H](C)[C@H]23)cc1`, the total growth inhibition concentration (TGI) in [1], in [2], in test [3], in [4], in test [5] and in [6] was over 100 µM throughout. The TGI in [8], in test [10] and in test [9] was over 100 µM throughout.
For `ClCCN(CCCl)c1ccc(OCc2ccccc2)cc1`, the GI50 is 15.7 µM in [1]; 2.53 µM in test [2]; 2.76 µM in [3]; 5.28 µM in test [4]; 6.3 µM in test [5]; 2.36 µM in test [7]. The GI50 is 1.74 µM in [8] and 4.4 µM in test [9]. For the same compound, the TGI in test [1] was 69.4 µM; in test [2], 29.8 µM; in test [3], 58.6 µM; in [4] it was over 100 µM; in [5], 39.6 µM; in test [7] it was 27.6 µM. In addition, the TGI in test [8] amounted to 40 µM; in test [9], 28.7 µM.
With `Cc1ccc([I+]c2ccc(C)cc2)cc1`, the GI50 in test [1] was 24.8 µM; in [2], 4.22 µM; in test [3] it was 18.6 µM; in test [4], 6.73 µM; in test [5], 2.71 µM; in [6] it was 8.86 µM. In addition, the GI50 in test [10] was 4.69 µM; in [9], 3.69 µM. Further, the TGI was over 100 µM in test [1]; over 100 µM in test [2]; over 100 µM in [3]; over 100 µM in test [4]; 57.4 µM in [5]; over 100 µM in [6]. Further, the results for the TGI in test [10] and in test [9] were over 100 µM and 54.2 µM, respectively.
As for `CO[C@@H]1[C@H](N(C)C(=O)c2ccccc2)C[C@@H]2O[C@]1(C)n1c3ccccc3c3c4c(c5c6ccccc6n2c5c31)C(=O)NC4=O`, the GI50 in test [1] was 0.461 µM; in test [2], 0.595 µM; in test [3] it was 0.459 µM; in test [4], 0.562 µM; in test [5], over 100 µM; in [6] it was 0.54 µM. The GI50 in [8] is 1.96 µM; in test [10], 0.173 µM; in test [9], 0.811 µM. Besides, the TGI in [1], in test [2], in [3], in [4], in [5] and in test [6] was over 100 µM in each case. Besides, the TGI in [8], in test [10] and in test [9] was over 100 µM in each case.
On to `N#C/C(=C\c1ccc([N+](=O)[O-])cc1)n1nnc2cc(F)c(F)cc21`, for which the GI50 in test [1] is 2.65 µM; in [2] it was 2.62 µM; in test [3] it was 1.77 µM; in [4], 1.72 µM; in [5], 2.17 µM; in [6], 1.66 µM. In addition, the figures for the GI50 in [7], in test [8] and in test [9] were 1.94 µM, 2.97 µM and 1.09 µM, respectively. Besides, the TGI in [1] is 11.4 µM; in test [2], 9.04 µM; in [3] it was 3.61 µM; in test [4], 4 µM; in test [5] it was 5.65 µM; in test [6] it was 3.36 µM. Also, the TGI in test [7] amounted to 21.9 µM; in test [8], 10.5 µM; in [9], 2.74 µM.
Regarding `O=C(O)c1cc(C(=O)C(=O)c2cc(C(=O)O)c(O)c3ccccc23)c2ccccc2c1O`, the TGI in [1], in [2], in test [3], in [4], in [5] and in test [6] was over 100 µM throughout. The TGI in test [10] and in test [9] was over 100 µM in each case.
For the compound `CCOC(=O)c1c2c(n(Cc3ccccc3)c1C)-c1nc[nH]c1C(=O)C2=O`, the GI50 was 29.3 µM in test [1]; 11.8 µM in test [2]; 16.4 µM in test [3]; 16.4 µM in [5]; 1.57 µM in [7]; 2.84 µM in test [8]. For the same compound, the results for the GI50 in [10] and in test [9] were 0.0891 µM and 11.4 µM, respectively. Also, the TGI in [1] came to 88.1 µM; in test [2] it was 25.9 µM; in test [3], 30 µM; in test [5], 30 µM; in [7], 7.87 µM; in test [8], 10.3 µM. Moreover, the TGI in test [10] came to 18.9 µM; in [9], 30.7 µM.
Consider `Cc1cn2c(/C=N/NC3=NCCN3)c(-c3ccc(Cl)c([N+](=O)[O-])c3)nc2s1`, for which the GI50 was 1.5 µM in test [1]; 0.942 µM in test [3]; 1.65 µM in test [4]; 1.6 µM in [5]; 0.933 µM in test [6]; 0.776 µM in test [10]. The GI50 in [9] was 1.75 µM. Moreover, the total growth inhibition concentration (TGI) stood at 3.97 µM in test [1]; 1.96 µM in test [3]; 4.56 µM in [4]; 7.24 µM in test [5]; 1.98 µM in [6]; 2.82 µM in test [10]. The TGI in test [9] was over 50 µM.
Take `Oc1c(CCl)cc(Cl)cc1Cc1cc(Cl)cc(Cc2cc(Cl)cc(CCl)c2O)c1O`: the GI50 in test [1] was 3.02 µM; in test [2], 4.67 µM; in [3], 2.56 µM; in test [4] it was 2.7 µM; in test [5] it was 4.66 µM; in [6] it was 2.9 µM. For the same compound, the GI50 in test [8] is 2.67 µM; in test [10] it was 1.91 µM; in [9] it was 2.21 µM. Moreover, the TGI in test [1] amounted to 22.6 µM; in test [2], 29.3 µM; in test [3] it was 8.79 µM; in test [4], 10.1 µM; in [5], 29.9 µM; in test [6], 11.1 µM. Moreover, the TGI was 13.4 µM in test [8], 5.81 µM in test [10] and 9.39 µM in test [9].
Regarding `CC12OC(C(=O)C13CC3)C1C(=O)c3cccc(O)c3C(=O)C12` (centres undefined), the GI50 was 25.8 µM in [1]; 28.7 µM in test [2]; 4.96 µM in test [3]; 10.3 µM in test [4]; 19.6 µM in [5]; 5.23 µM in test [6]. For the same compound, the GI50 is 1.83 µM in [8], 31.1 µM in test [10] and 23.3 µM in test [9]. The TGI in test [1] is 82.1 µM; in [2] it was over 100 µM; in [3], 18.9 µM; in test [4] it was 34.3 µM; in test [5], 50.8 µM; in [6], 37.2 µM. Moreover, the values for the TGI in test [8], in [10] and in [9] were over 100 µM, over 100 µM and over 70.6 µM, respectively.
As for `O=C(O)c1ccc(NCn2nc(-c3ccccc3O)oc2=S)cc1O`, the GI50 is over 100 µM in test [1]; over 100 µM in test [2]; 8.85 µM in [3]; 86.6 µM in test [4]; over 100 µM in test [5]; 39.8 µM in [6]. The figures for the GI50 in test [8], in [10] and in [9] were 26.1 µM, over 100 µM and over 100 µM, respectively. The TGI was over 100 µM in [1]; over 100 µM in test [2]; 60.1 µM in test [3]; over 100 µM in test [4]; over 100 µM in test [5]; over 100 µM in test [6]. Besides, the concentration for total growth inhibition (TGI) was 82.1 µM in test [8], over 100 µM in test [10] and over 100 µM in test [9].
With `OC1CCC(COC(c2ccccc2)(c2ccccc2)c2ccccc2)O1` (centres undefined), the TGI came out at 35.7 µM in test [1]; 37 µM in test [2]; 38.6 µM in [3]; 24.3 µM in test [4]; 34.1 µM in [5]; 33.8 µM in test [6]. Also, the TGI was 35.8 µM in test [7], 35.2 µM in test [8] and 38.2 µM in test [9].
`CN(CCNc1ccc(C(=N)N)cc1)c1ccc(C(=N)N)cc1`: the GI50 in test [1] was 16.1 µM; in [2], 0.249 µM; in test [3] it was 5.53 µM; in test [4], 53 µM; in [5], 35.1 µM; in [6], 32.6 µM. Besides, the GI50 in test [7] was 88.8 µM; in [8], over 100 µM; in [9] it was 23.9 µM. Also, the TGI was 51.9 µM in test [1]; over 100 µM in [2]; over 100 µM in test [3]; over 100 µM in test [4]; over 100 µM in test [5]; over 100 µM in [6]. In addition, the concentration for total growth inhibition (TGI) in [7], in test [8] and in test [9] was over 100 µM each time.
